Assay results reported in US11261189B2, “Substituted 2,4 diamino-quinoline as new medicament for fibrosis, autophagy and cathepsins B (CTSB), L (CTSL) and D (CTSD) related diseases” (Genoscience Pharma, priority 2018, dated 2022).
“Also recorded” adds a separate entry of the source. Counter-ions that a name gives are not always drawn.

What was measured:
[1] = tested on: autophagy flux (LC3-II) in HepG2 cell line; assay: Autophagy flux, LC3-II immunoblot with/without Bafilomycin, HepG2 cell line; format: cell-based; conditions: 4 hours and 24 hours of treatment
Method: Since compound 2-3 induced an inhibition of the proteolytic activity of cathepsins B, D and/or L (see example 1) supporting an inhibition of some lysosomal functions which can affect the cellular autophagy flux, the capacity of compound 2-3 to modulate the cellular autophagy processes and functions was evaluated in two Hepatocellular carcinoma (HCC) cell lines: Huh7 and HepG2. For this purpose, the accumulation of LC3-II (Light Chain 3 phosphatidylethanolamine conjugate) in presence or absence of compound 2-3 was analyzed using immunoblot analysis of LC3-II.
The HepG2 cell line was maintained in DMEM low glucose (Cat #21885025, ThermoFischer) containing 1% penicillin-streptomycin (Cat #P06-07100, Dutscher) and 10% FBS (Cat #SV30160.03C, Dutscher). The Huh7 cell line was maintained in DMEM high glucose (Cat #L0103-500, Dutscher) containing 1% penicillin-streptomycin (Cat #P06-07100, Dutscher) and 10% SVF (Cat #SV30160.03C, Dutscher). Cells lines were cultured at 37° C. with 5% CO2.
The day before the experiment, 6-well plates with 250,000 cells for HepG2 and 310,000 cells for Huh7 in 1.8 mL of medium per well were prepared. […]
After 4 hours and 24 hours of cells treatment, the medium was removed from each well. […] Total protein concentration was assessed using the BCA reagent (Cat #23227, ThermoFischer) and cellular lysates were stored at −80° C. until western-blot analysis. […]

[2] = tested on: diethyl nitrosamine (DEN) cirrhotic rat model of liver fibrosis; assay: DEN induced cirrhosis in rats, study 1: Sirius red quantification of liver fibrosis; format: in vivo; conditions: 6 weeks after 14 weeks DEN
Source text: This animal model allows developing an extensive liver fibrosis, leading to a compensated liver cirrhosis with a multifocal hepatocarcinoma (HCC) after 14 weeks of induction (Schiffer, E. et al. Hepatology 2005 (41), 307-314). The DEN cirrhotic rat animal model was used here as a specific animal model of liver fibrosis.
Forty two Fisher 344 male rat (obtained from Charles River Laboratories France, including spare animals), weighting approximately 280 g at the start of the study, were randomized in 5 groups of 8 (groups 1, 2, 3 and 5) or 6 (group 4) animals and housed with 3 animals per cage, given free access to food and water and allowed to acclimate for at least 5 days prior to test initiation.
The DEN cirrhotic rat model was obtained after 14 weekly intraperitoneal injections of DEN (intra-peritoneal injections (i.p.) of DEN at 50 mg/kg/week). The animals were then treated according to Table 9 during 6 weeks. In this in vivo experiment, the anti-fibrotic activity of compound 2-3 was evaluated in liver fibrosis animal model, alone or in combination with Sorafenib (a multikinase inhibitor of Raf-1, B-Raf, VEGFR-2, VEGFR3, PDGFRβ, Flt3 and c-Kit). After 6 weeks of treatment, all animals were sacrificed using CO2 and rat livers were collected for analysis. The quantification of the liver fibrotic tissue was evaluated by Sirius red staining of rat liver sections.
Group 1 contained 8 animals which were daily dosed (q.d.) by oral gavage (per os, p.o.) with the vehicle during 6 weeks.
Group 2 contained 8 animals which were daily dosed (q.d.) by oral gavage (per os, p.o.) with Sorafenib at 10 mg/kg/day during 6 weeks.
Group 3 contained 8 animals which were daily dosed (q.d.) by oral gavage (per os, p.o.) with compound 2-3 at 15 mg/kg/day during 6 weeks.
Group 4 contained 6 animals which were daily dosed (q.d.) by oral gavage (per os, p.o.) with compound 2-3 at 15 mg/kg/day in combination with Sorafenib at 10 mg/kg/day during 6 weeks.
Group 5 contained 8 animals which were daily dosed (q.d.) by oral gavage (per os, p.o.) with compound 2-3 at 30 mg/kg/day during 6 weeks. […]

In the case of `CC(C)(C)NC1CCN(c2cc(NCc3ccc(Cl)cc3)nc3ccccc23)CC1` [2-3, 2-(4-chlorobenzylamino)-4-(4-tert-butylaminopiperidin-1-yl)-quinoline Hydrochloride Salt], the “accumulation of the LC3-II form” value [1] is reported as “significantly induced, in a dose-dependent manner, an accumulation of the LC3-II form”, the “autophagy flux (LC3-II Baf+/Baf− ratio)” value ([1]; Hydrochloride Salt) is reported as “inhibition; also recorded: inhibitor of the autophagy flux” and the “reduction of the level of collagen fibers deposition (Sirius red) compared to the control group” value ([2]; group 3: 15 mg/kg/day p.o. q.d., p<0.05) is reported as 41.0%. The “reduction of the level of collagen fibers deposition (Sirius red) compared to the control group” value ([2]; group 5: 30 mg/kg/day p.o. q.d., p=0.01) was 45.3%.
